Activity calls are given as the source filed them. The calls are words filed in the database; no cut-off is given here.
What was measured:
Cannabinoid receptor 1 [1] = biological target: T1, Cannabinoid receptor 1 (Homo sapiens, UniProt P21554); assay: Displacement of [3H]CP55,940 from human CB1 receptor expressed in CHOK1 cell membranes at 1 uM after 2 hrs by liquid scintillation counting method relative to control
Sus scrofa = organism: Sus scrofa; assay: Inhibition of MAGL in pig brain homogenates using [3H]2-OG as substrate at 10 uM after 15 mins in presence of URB597 by liquid scintillation counting method; assay type: tissue-based
[2] = biological target: T2, Monoacylglycerol lipase ABHD6 (Mus musculus) (UniProt Q8R2Y0); assay: Inhibition of ABHD6 in mouse BV2 cells preincubated for 30 mins and subsequent addition of [3H]-2-OG substrate measured after 15 mins by liquid scintillation counting method; assay type: cell-based
T2 sequence (whole entry): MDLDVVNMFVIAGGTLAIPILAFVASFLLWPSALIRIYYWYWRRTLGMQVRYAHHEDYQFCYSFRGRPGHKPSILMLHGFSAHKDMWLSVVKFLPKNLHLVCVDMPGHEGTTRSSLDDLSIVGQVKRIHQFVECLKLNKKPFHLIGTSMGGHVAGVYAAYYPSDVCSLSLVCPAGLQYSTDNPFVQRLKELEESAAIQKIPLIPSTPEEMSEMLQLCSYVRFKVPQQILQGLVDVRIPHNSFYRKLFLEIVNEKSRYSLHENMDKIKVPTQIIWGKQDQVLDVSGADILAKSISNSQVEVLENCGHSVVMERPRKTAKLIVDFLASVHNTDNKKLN

[3] = biological target: T3, Lysophosphatidylserine lipase ABHD12 (Mus musculus) (UniProt Q99LR1); assay: Inhibition of ABHD12 in mouse BV2 cells preincubated for 30 mins and subsequent addition of [3H]-2-OG substrate measured after 15 mins by liquid scintillation counting method; assay type: cell-based
T3 sequence (whole entry): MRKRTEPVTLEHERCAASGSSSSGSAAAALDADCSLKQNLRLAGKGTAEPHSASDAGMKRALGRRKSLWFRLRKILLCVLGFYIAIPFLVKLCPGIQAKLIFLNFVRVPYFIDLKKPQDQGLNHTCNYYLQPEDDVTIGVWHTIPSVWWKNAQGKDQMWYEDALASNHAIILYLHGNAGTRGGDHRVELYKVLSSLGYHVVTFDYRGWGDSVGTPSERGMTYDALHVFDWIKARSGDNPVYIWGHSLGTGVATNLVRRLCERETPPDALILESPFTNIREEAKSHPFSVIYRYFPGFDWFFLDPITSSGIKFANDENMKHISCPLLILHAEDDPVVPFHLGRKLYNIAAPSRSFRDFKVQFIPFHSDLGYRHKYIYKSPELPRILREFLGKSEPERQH

[4] = biological target: T4, Fatty-acid amide hydrolase 1 (Homo sapiens) (UniProt O00519); assay: Inhibition of FAAH in human U937 cells assessed as decrease in [ethanolamine-1-3H]AEA uptake at 10 uM preincubated for 2 mins followed by AEA addition after 5 mins by liquid scintillation counting method; assay type: cell-based
T4 sequence (whole entry): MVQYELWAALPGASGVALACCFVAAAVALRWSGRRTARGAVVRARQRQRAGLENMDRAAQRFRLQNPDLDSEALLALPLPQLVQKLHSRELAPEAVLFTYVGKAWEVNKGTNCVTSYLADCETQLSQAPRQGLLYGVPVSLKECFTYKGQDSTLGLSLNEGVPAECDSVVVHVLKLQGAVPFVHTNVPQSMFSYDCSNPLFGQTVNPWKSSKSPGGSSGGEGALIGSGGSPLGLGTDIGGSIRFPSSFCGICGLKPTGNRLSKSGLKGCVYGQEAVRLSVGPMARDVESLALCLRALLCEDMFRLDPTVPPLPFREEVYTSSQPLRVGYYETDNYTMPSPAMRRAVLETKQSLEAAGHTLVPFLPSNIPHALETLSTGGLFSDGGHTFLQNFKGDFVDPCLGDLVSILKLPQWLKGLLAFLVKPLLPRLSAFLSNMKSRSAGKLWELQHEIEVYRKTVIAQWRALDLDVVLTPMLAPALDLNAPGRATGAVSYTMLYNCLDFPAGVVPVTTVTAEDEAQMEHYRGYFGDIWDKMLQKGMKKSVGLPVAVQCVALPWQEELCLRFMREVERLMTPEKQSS

Cannabinoid receptor 2 [5] = biological target: T5, Cannabinoid receptor 2 (Homo sapiens, UniProt P34972); assay: Displacement of [3H]CP55,940 from human CB2 receptor expressed in CHOK1 cell membranes at 1 uM after 2 hrs by liquid scintillation counting method relative to control
T5 sequence (P34972 whole entry): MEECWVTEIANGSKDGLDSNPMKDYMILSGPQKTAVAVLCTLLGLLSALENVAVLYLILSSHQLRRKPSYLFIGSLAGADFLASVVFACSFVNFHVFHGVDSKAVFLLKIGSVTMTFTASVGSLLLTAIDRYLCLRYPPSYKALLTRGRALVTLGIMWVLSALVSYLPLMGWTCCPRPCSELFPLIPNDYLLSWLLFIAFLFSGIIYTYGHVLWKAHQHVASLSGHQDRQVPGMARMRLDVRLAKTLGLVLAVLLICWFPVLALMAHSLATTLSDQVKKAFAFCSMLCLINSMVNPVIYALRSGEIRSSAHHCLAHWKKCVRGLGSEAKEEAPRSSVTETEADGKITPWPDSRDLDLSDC

Cannabinoid receptor 1 [6] = biological target: T1, Cannabinoid receptor 1; assay: Displacement of [3H]CP55,940 from human CB1 receptor expressed in CHOK1 cell membranes after 2 hrs by liquid scintillation counting method
Cannabinoid receptor 2 [7] = biological target: T5, Cannabinoid receptor 2; assay: Displacement of [3H]CP55,940 from human CB2 receptor expressed in CHOK1 cell membranes after 2 hrs by liquid scintillation counting method
[8] = biological target: T6, Fatty-acid amide hydrolase 1 (Homo sapiens, UniProt O00519); assay: Inhibition of FAAH in human U937 cells using [ethanolamine-1-3H]AEA as substrate after 15 mins by liquid scintillation counting method; assay type: cell-based
T6 sequence (O00519 whole entry): T4 sequence (whole entry)

[9] = Inhibition of MAGL in pig brain homogenates using [3H]2-OG as substrate after 15 mins by liquid scintillation counting method; assay type: tissue-based, Sus scrofa
[10] = biological target: T7, Prostaglandin G/H synthase 2 (Homo sapiens, UniProt P35354); assay: Inhibition of recombinant human COX2 preincubated for 15 mins followed by arachidonic acid/2-OG substrate addition after 5 mins by ADHP probe-based fluorescence assay
T7 sequence (P35354 whole entry): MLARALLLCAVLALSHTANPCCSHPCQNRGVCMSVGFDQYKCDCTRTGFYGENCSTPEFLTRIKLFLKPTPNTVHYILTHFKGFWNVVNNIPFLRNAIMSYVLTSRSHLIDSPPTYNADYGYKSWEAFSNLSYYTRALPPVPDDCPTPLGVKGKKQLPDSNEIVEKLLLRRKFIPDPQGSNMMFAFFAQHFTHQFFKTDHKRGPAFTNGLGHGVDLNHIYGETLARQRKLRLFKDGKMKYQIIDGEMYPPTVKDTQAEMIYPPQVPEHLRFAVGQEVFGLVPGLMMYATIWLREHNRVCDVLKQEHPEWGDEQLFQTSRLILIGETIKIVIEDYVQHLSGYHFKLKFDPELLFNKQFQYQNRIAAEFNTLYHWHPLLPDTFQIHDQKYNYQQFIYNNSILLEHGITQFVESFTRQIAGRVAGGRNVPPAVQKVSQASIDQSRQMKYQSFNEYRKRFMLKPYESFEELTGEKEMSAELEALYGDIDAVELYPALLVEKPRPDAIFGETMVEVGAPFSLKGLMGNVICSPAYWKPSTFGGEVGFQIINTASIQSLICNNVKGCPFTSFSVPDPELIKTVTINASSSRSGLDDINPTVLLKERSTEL

[11] = biological target: T6, Fatty-acid amide hydrolase 1; assay: Inhibition of FAAH in human U937 cells assessed as decrease in [ethanolamine-1-3H]AEA uptake preincubated for 2 mins followed by AEA addition after 5 mins by liquid scintillation counting method; assay type: cell-based
[12] = biological target: T4, Fatty-acid amide hydrolase 1 (Homo sapiens); assay: Inhibition of FAAH in human U937 cells using [ethanolamine-1-3H]AEA as substrate at 10 uM after 15 mins by liquid scintillation counting method relative to control; assay type: cell-based

T1 sequence (P21554 whole entry): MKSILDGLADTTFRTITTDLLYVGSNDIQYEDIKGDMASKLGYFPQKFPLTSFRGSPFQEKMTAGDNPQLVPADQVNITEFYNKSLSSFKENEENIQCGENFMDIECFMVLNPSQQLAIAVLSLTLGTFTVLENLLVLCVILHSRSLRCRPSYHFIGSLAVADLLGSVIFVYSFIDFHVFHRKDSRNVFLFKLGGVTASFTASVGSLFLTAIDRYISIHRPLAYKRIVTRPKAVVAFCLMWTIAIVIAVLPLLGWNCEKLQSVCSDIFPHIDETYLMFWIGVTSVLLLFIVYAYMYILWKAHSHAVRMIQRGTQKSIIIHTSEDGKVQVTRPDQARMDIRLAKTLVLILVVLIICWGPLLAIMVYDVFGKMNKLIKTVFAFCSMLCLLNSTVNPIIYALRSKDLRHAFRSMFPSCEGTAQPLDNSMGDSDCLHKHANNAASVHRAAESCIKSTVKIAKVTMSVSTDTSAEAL

Row | SMILES | inhibition (Cannabinoid receptor 1 [1]) [%] | inhibition (Sus scrofa) | inhibition [2] | inhibition [3] | inhibition [4] | inhibition (Cannabinoid receptor 2 [5]) | Ki (Cannabinoid receptor 1 [6]) [nM] | Ki (Cannabinoid receptor 2 [7]) [nM] | IC50 [8] [nM] | IC50 [9] [nM] | IC50 [10] [nM] | IC50 [11] [nM] | inhibition [12] [%]
1 | CC[C@@H](C)/C=C(C)/C=C/C(=O)c1c(O)c(-c2ccc(O)cc2)c[nH]c1=O | 40 | inactive | inactive | inactive | Active | – | – | – | – | – | – | – | –
2 | C=CCCCOC(=O)c1c(O)c(-c2ccc(O)cc2)c[nH]c1=O | < 20 | inactive | inactive | inactive | inactive | < 20% | – | – | – | – | – | – | –
3 | NC(=O)c1cccc(-c2cccc(OC(=O)NC3CCCCC3)c2)c1 | – | inactive | inactive | inactive | – | – | – | – | – | – | – | – | –
4 | CCCCCCCCCCCCCCCCCC(=O)c1c(O)c(-c2ccc(O)cc2)c[nH]c1=O | < 20 | inactive | inactive | inactive | inactive | < 20% | > 1000 | > 1000 | > 10000 | > 10000 | > 10000 | > 10000 | –
5 | CN(Cc1cccc(-c2ccncc2)c1)C(=O)Oc1ccc(-c2ccc(C(N)=O)cc2)cc1 | – | – | Active | Active | – | – | – | – | – | – | – | – | –
6 | CCC(C)/C=C(C)/C=C/C=C/C(=O)c1c(OC)c(-c2ccc(O)cc2)c[nH]c1=O (stereo not given) | < 20 | inactive | inactive | inactive | Active | < 20% | – | – | – | – | – | – | –
7 | CCCCCCCCCCOC(=O)c1c(O)c(-c2ccc(O)cc2)c[nH]c1=O | < 20 | inactive | inactive | inactive | Active | < 20% | > 1000 | > 1000 | > 10000 | > 10000 | > 10000 | 600 | 40 to 50
8 | CCCCCCCCCCCC(=O)c1c(O)c(-c2ccc(O)cc2)c[nH]c1=O | 50 | inactive | inactive | inactive | Active | inactive | 1000 | > 1000 | 4600 | > 10000 | > 10000 | 800 | 40 to 50
9 | CCCCCCCC(=O)c1c(O)c(-c2ccc(O)cc2)c[nH]c1=O | < 20 | inactive | inactive | inactive | Active | < 20% | > 1000 | > 1000 | > 10000 | > 10000 | > 10000 | 700 | 80
10 | O=C(Oc1ccc([N+](=O)[O-])cc1)N1CCC(C(O)(c2ccc3c(c2)OCO3)c2ccc3c(c2)OCO3)CC1 | – | inactive | inactive | inactive | – | – | – | – | – | – | – | – | –
11 | CCC(C)CC(C)/C=C(C)/C=C/C(=O)c1c(O)c(-c2ccc(O)cc2)c[nH]c1=O (stereo not given) | 40 | inactive | inactive | inactive | inactive | – | – | – | – | – | – | – | –
12 | CCC(/C=C/C=C/C=C/C(=O)c1c(O)c(-c2ccc(O)cc2)c[nH]c1=O)CO (stereo not given) | < 20 | inactive | inactive | inactive | inactive | < 20% | – | – | – | – | – | – | –
13 | CCC(C)/C=C(C)/C=C/C=C/C=C/C(=O)c1c(O)c(-c2ccc(O)cc2)c[nH]c1=O (stereo not given) [FARINOSONE A] | < 20 | inactive | inactive | inactive | Active | < 20% | > 1000 | > 1000 | > 10000 | > 10000 | > 10000 | 1200 | –
14 | CCCCCCCCCCC[C@@H](C[C@@H]1OC(=O)[C@H]1CCCCCC)OC(=O)[C@H](CC(C)C)NC=O | – | – | Active | Active | – | – | – | – | – | – | – | – | –
15 | CCC(C)/C=C(C)/C=C/C=C/C(=O)c1c(O)c(-c2ccc(O)cc2)c[nH]c1=O (stereo not given) | < 20 | inactive | inactive | inactive | inactive | < 20% | – | – | – | – | – | – | –
16 | CCC(/C=C(C)/C=C/C(=O)c1c(O)c(-c2ccc(O)cc2)c[nH]c1=O)CO (stereo not given) | < 20 | inactive | inactive | inactive | inactive | < 20% | – | – | – | – | – | – | –
17 | CCC(C)CC(C)/C=C(C)/C=C/C=C/C(=O)c1c(O)c(-c2ccc(O)cc2)c[nH]c1=O (stereo not given) | < 20 | inactive | inactive | inactive | Active | < 20% | – | – | – | – | – | – | 40 to 50

From ChEMBL document CHEMBL4043078, “Biological evaluation of pyridone alkaloids on the endocannabinoid system” (Bioorg Med Chem, 2017)
